# Results as given in ChEMBL document CHEMBL5634141 (Eur J Med Chem, 2023).
# Activity calls are given as the source filed them. No cut-off for these calls is given here.
# Assays:
# ASPC1 = test: Antiproliferative activity against human ASPC1 cells expressing KRAS G12D mutant assessed as inhibition of cell growth incubated for 72 hrs by CCK-8 assay; assay type: functional, cell-based; details: ASPC1, 72 h
# [1] = Cytotoxicity against HEK293T cells assessed as inhibition of cell growth incubated for 72 hrs by CCK-8 assay; assay type: toxicity, cell-based, HEK-293T; details: human
# [2] = test system: von Hippel-Lindau disease tumor suppressor/GTPase KRas (Homo sapiens), P01116+P40337 [G12C]; test: PROTAC activity at VHL/KRAS G12C mutant in human MIA PaCa-2 cells assessed as induction of protein degradation by measuring maximal efficacy by Western blotting analysis relative to control; assay type: cell-based
# [3] = test system: von Hippel-Lindau disease tumor suppressor/GTPase KRas (Homo sapiens), P01116+P40337 [G12C]; test: PROTAC activity at VHL/KRAS G12C mutant in human MIA PaCa-2 cells assessed as induction of protein degradation at 100 nM incubated for 48 hrs by Western blotting analysis relative to control; assay type: cell-based
# [4] = test system: von Hippel-Lindau disease tumor suppressor/GTPase KRas (Homo sapiens), P01116+P40337 [G12C]; test: PROTAC activity at VHL/KRAS G12C mutant in human MIA PaCa-2 cells assessed as induction of protein degradation in presence of MLN4924 by Western blot analysis; assay type: cell-based
# [5] = test system: von Hippel-Lindau disease tumor suppressor/GTPase KRas (Homo sapiens), P01116+P40337 [G12C]; test: PROTAC activity at VHL/KRAS G12C mutant in human MIA PaCa-2 cells assessed as induction of protein degradation in presence of AMG510 by Western blotting analysis; assay type: cell-based
# [6] = test system: von Hippel-Lindau disease tumor suppressor/GTPase KRas (Homo sapiens), P01116+P40337 [G12C]; test: PROTAC activity at VHL/KRAS G12C mutant in human MIA PaCa-2 cells assessed as induction of protein degradation at 100 nM incubated for 48 hrs followed by compound washout by Western blotting analysis; assay type: cell-based
# NCI-H358 [7] = test: Induction of apoptosis in human NCI-H358 cells assessed as late apoptotic cells at 30 nM incubated for 48 hrs by Annexin V-FITC staining based flow cytometry analysis (reference value: 5.20 %); assay type: functional
# NCI-H358 [8] = test: Induction of apoptosis in human NCI-H358 cells assessed as early apoptotic cells at 100 nM incubated for 48 hrs by Annexin V-FITC staining based flow cytometry analysis (reference value: 1.60 %); assay type: functional
# NCI-H358 [9] = test: Induction of apoptosis in human NCI-H358 cells assessed as late apoptotic cells at 300 nM incubated for 48 hrs by Annexin V-FITC staining based flow cytometry analysis (reference value: 5.20 %); assay type: functional
# MIA PaCa-2 [10] = test: Induction of apoptosis in human MIA PaCa-2 cells assessed as early apoptotic cells at 30 nM incubated for 48 hrs by Annexin V-FITC staining based flow cytometry analysis (reference value: 1.55 %); assay type: functional
# MIA PaCa-2 [11] = test: Induction of apoptosis in human MIA PaCa-2 cells assessed as necrotic cells at 30 nM incubated for 48 hrs by Annexin V-FITC staining based flow cytometry analysis (reference value: 1.25 %); assay type: functional
# MIA PaCa-2 [12] = test: Induction of apoptosis in human MIA PaCa-2 cells assessed as necrotic cells at 100 nM incubated for 48 hrs by Annexin V-FITC staining based flow cytometry analysis (reference value: 1.25 %); assay type: functional
# MIA PaCa-2 [13] = test: Induction of apoptosis in human MIA PaCa-2 cells assessed as early apoptotic cells at 300 nM incubated for 48 hrs by Annexin V-FITC staining based flow cytometry analysis (reference value: 1.55 %); assay type: functional
# MIA PaCa-2 [14] = test: Antitumor activity against human MIA PaCa-2 cells xenografted in BALB/c nude mouse assessed as increase in percentage of cleaved-caspase 3-positive cells at 10 to 30 mg/kg, ip administered for 16 days by immunohistochemical staining analysis; assay type: functional, organism-based; details: dose 10-30 mg/kg, time 16.0 day
# [15] = Volume of distribution at steady state in ICR mouse at 2 mg/kg, iv measured after 24 hrs by LC-MS/MS analysis; assay type: ADME, organism-based; details: in vivo
# [16] = Clearance in ICR mouse at 2 mg/kg, iv measured after 24 hrs by LC-MS/MS analysis; assay type: ADME, organism-based; details: in vivo
# [17] = Cmax in ICR mouse at 30 mg/kg, ip measured after 24 hrs by LC-MS/MS analysis; assay type: ADME, organism-based; details: in vivo
# [18] = AUC (0 to t) in ICR mouse at 30 mg/kg, ip measured after 24 hrs by LC-MS/MS analysis; assay type: ADME, organism-based; details: in vivo
# NCI-H358 [19] = test: Antiproliferative activity against human NCI-H358 cells expressing KRAS G12C mutant assessed as inhibition of cell growth at 100 nM incubated for 8 days by CCK-8 assay; assay type: functional, cell-based; details: time 8.0 day
# NCI-H358 [20] = test: Antiproliferative activity against human NCI-H358 cells expressing KRAS G12C mutant assessed as relative cell viability at 30 nM incubated for 72 hrs by CCK-8 assay; assay type: functional; details: read-out: Activity
# Calu-1 [21] = test: Antiproliferative activity against human Calu-1 cells expressing KRAS G12C mutant assessed as relative cell viability at 30 nM incubated for 72 hrs by CCK-8 assay; assay type: functional; details: Calu-1, read-out: Activity
# SW837 [22] = test: Antiproliferative activity against human SW837 cells expressing KRAS G12C mutant assessed as relative cell viability at 30 nM incubated for 72 hrs by CCK-8 assay; assay type: functional; details: read-out: Activity
# NCI-H23 [23] = test: Antiproliferative activity against human NCI-H23 cells expressing KRAS G12C mutant assessed as relative cell viability at 30 nM incubated for 72 hrs in presence of infigratinib by CCK-8 assay; assay type: functional; details: read-out: Activity
# MIA PaCa-2 [24] = test: Antiproliferative activity against human MIA PaCa-2 cells expressing KRAS G12C mutant assessed as relative cell viability at 30 nM incubated for 72 hrs in presence of crizotinib by CCK-8 assay; assay type: functional; details: read-out: Activity
# SW837 [25] = test: Antiproliferative activity against human SW837 cells expressing KRAS G12C mutant assessed as relative cell viability at 30 nM incubated for 72 hrs in presence of MK-2206 by CCK-8 assay; assay type: functional; details: read-out: Activity
# Calu-1 [26] = test: Antiproliferative activity against human Calu-1 cells expressing KRAS G12C mutant assessed as relative cell viability at 30 nM incubated for 72 hrs in presence of daclolisib by CCK-8 assay; assay type: functional; details: read-out: Activity
# NCI-H23 [27] = test: Antiproliferative activity against human NCI-H23 cells expressing KRAS G12C mutant assessed as relative cell viability at 30 nM incubated for 72 hrs in presence of naporafenib by CCK-8 assay; assay type: functional; details: read-out: Activity
# SW837 [28] = test: Antiproliferative activity against human SW837 cells expressing KRAS G12C mutant assessed as relative cell viability at 30 nM incubated for 72 hrs in presence of naporafenib by CCK-8 assay; assay type: functional; details: read-out: Activity
# NCI-H358 [29] = test: Synergistic antiproliferative activity against human NCI-H358 cells expressing KRAS G12C mutant assessed as combination index at 30 nM incubated for 72 hrs in presence of infigratinib by CCK-8 assay; assay type: functional
# NCI-H358 [30] = test: Synergistic antiproliferative activity against human NCI-H358 cells expressing KRAS G12C mutant assessed as combination index incubated for 72 hrs in presence of linsitinib by CCK-8 assay; assay type: functional
# MIA PaCa-2 [31] = test: Inhibition of colony formation in human MIA PaCa-2 cells expressing KRAS G12C mutant assessed as reduction in cell number at 30 nM incubated for 14 days in presence of linsitinib by crystal violet staining based analysis; assay type: functional; details: time 14.0 day
# [32] = Toxicity in ICR mouse assessed as side effects at 30 mg/kg, ip measured after 24 hrs; assay type: organism-based; details: in vivo
smiles,measurement,setting,value
C=CC(=O)N1CCN(c2nc(=O)n(-c3c(C)ccnc3C(C)C)c3nc(-c4c(F)cccc4OCC4CCN(CCCC(=O)N[C@H](C(=O)N5C[C@H](O)C[C@H]5C(=O)NCc5ccc(-c6scnc6C)cc5)C(C)(C)C)CC4)c(F)cc23)[C@@H](C)C1,IC50,ASPC1,> 10 µM
same,IC50 at 72 h,[1],> 10 µM
same,Emax,[2],> 95%
same,Activity,[3],100%
same,Activity,[4],inactive
same,Activity,[5],inactive
same,Activity,[6],Active
same,Activity,NCI-H358 [7],6.13%
same,Activity,NCI-H358 [8],2.94%
same,Activity,NCI-H358 [9],14.6%
same,Activity,MIA PaCa-2 [10],2.66%
same,Activity,MIA PaCa-2 [11],1.37%
same,Activity,MIA PaCa-2 [12],4.09%
same,Activity,MIA PaCa-2 [13],9.58%
same,Activity,MIA PaCa-2 [14],Active
same,Vdss,[15],2 L/kg
same,clearance,[16],5.05 L/h/kg
same,Cmax,[17],6.46 µg/mL
same,AUC(0-t) at 24 h,[18],21 µg·h/mL
same,Activity,NCI-H358 [19],Active
same,viability at 0.03 µM,NCI-H358 [20],0.83%
same,viability at 0.03 µM,Calu-1 [21],77%
same,viability at 0.03 µM,SW837 [22],0.77%
same,viability at 0.03 µM,NCI-H23 [23],0.41%
same,viability at 0.03 µM,MIA PaCa-2 [24],0.28%
same,viability at 0.03 µM,SW837 [25],0.34%
same,viability at 0.03 µM,Calu-1 [26],0.12%
same,viability at 0.03 µM,NCI-H23 [27],0.34%
same,viability at 0.03 µM,SW837 [28],0.32%
same,CI,NCI-H358 [29],<1
same,CI,NCI-H358 [30],<1
same,inhibition,MIA PaCa-2 [31],Active
same,Activity,[32],Non-Toxic
